How the values were obtained:
C. autoethanogenum [1] = assay: Toxicity to C. autoethanogenum by batch fermentation using syngas substrate, optical density; type: cell-based, Clostridium autoethanogenum; details: for O.D. Response of Various Inhibitors on C. autoethanogenum: Table 21, one value per compound; for O.D. Response to Various Inhibitors: duplicates A and B, amount not given
Description: In this example various crotonate-like compounds on are evaluated for toxicity to C. autoethanogenum by batch fermentation using syngas substrate. The batch fermentations are conducted by anoxically filling 100 mL serum bottles with 10 mL of media having the composition given in Tables 12 and 13. Duplicate runs are conducted for each concentration. The compounds are: • C-1 Ethyl 4,4,4-trifluoro-3-(trifluoromethyl)crotonate • C-4 4,4,4-Trifluorocrotonamide • C-9 Ethyl 4,4,4-Trifluoro-3-(amino)crotonate • C-18 3 trifluoromethyl-4-methoxybenzoate.
Each bottle is inoculated with 1.0 mL of seed culture inoculum from an active fermenter using syngas substrate and containing Clostridium autoethanogenum, which inoculum has an OD of about 4.92 (which upon a 10 times dilution provides a starting OD for the fermentation of about 0.49). The bottles are gased with syngas to about 100 kilopascals and maintained at a temperature of 37° C. The bottles are regassed with syngas every 8 to 12 hours. The syngas has the approximate composition set forth in Examples 6 to 10. Twenty four hours after inoculation of the bottles with the bacteria, the compounds are added to different bottles as a solution in 50 μL of N-methylpyrrolidone in the amounts indicated in Tables 20 and 21. The fermentation process is allowed to progress at 37° C. At selected intervals of time, bacterial growth is measured by reading the OD of the fermentation liquid using a Thermo Spectronic Genesys 20 spectrophotometer. Optical density is measured by anoxically removing an aliquot of fermentation liquid and adding it to a disposable cuvette. OD's ranging between 0.01 and 0.4 are measured using fermentation liquid directly, while OD's greater than 0.4 are measure after performing a 1/10 dilution with water.

acyl-CoA dehydrogenases = assay: In vitro acyl-CoA dehydrogenase ferrocenium assay with C. tyrobutyricum cell-free extract; type: biochemical; details: 0.5 to 10 mM compound; rate of ferrocenium reduction at 300 nm
Description: Lehman, et al., in An Acyl-Coenzyme A Dehydrogenase Assay Utilizing the Ferricenium Ion, Analytical Biochemistry 186, pages 280-284 (1990), disclose an in vitro assay screening technique for acyl-CoA dehydrogenases for determining enzyme deficiencies in children. An adaptation of this technique was explored as a potential screening method for ascertaining potential butyrogen inhibitors. An aqueous assay liquor is prepared such that each 1 milliliter sample contains 50 mM of TrisHCl buffer (pH 7.6); 0.05 mM of butyryl-CoA; 5 micromoles of FAD (flavin adenine dinucleotide) and 0.4 mM of ferrocenium. Whole cells of C. tyrobutyricum are lysed and are added to the assay liquor. […] The abbreviation mM stands for millimolar. To assure metabolic consistency among the samples a master batch of C. tyrobutyricum is prepared and harvested at the early log growth stage (approximate O.D. of between about 0.5 and 0.7). The master batch fermentation broth is centrifuged and rinsed with 50 mM TrisHCl buffer (pH 7.6), centrifuged and reconstituted with 50 mM TrisHCl buffer (pH 7.6) to be 10 times more concentrated than the original master batch. Aliquots of about 0.5 milliliter are placed into cryogenic vials (about 1.8 milliliter capacity) and frozen at −80° C. until needed. When needed, a vial is placed in an anoxic Coy chamber and allowed to thaw to room temperature. Once thawed, the cells are added to a 15 mL centrifuge tube and diluted with 0.5 mL of a 2 mg/mL solution of lysozyme (purchased from Aldrich) in 50 mM Tris-HCl (final concentration of lysozyme is about 1 mg/mL). The centrifuge tube is inverted 5 times, removed from the Coy chamber and allowed to incubate at 37° C. for 30 minutes. […] The centrifuge tube is vortexed in the Coy chamber for about 30 seconds, removed from the chamber and centrifuged for 15 minutes at 4000 rpm and 4° C. The tube is returned to the chamber and the cell-free extract (supernatant) is used to prepare the above described samples. The samples are analyzed at various times by absorbance spectroscopy at 300 nm using a Thermo Scientific Evolution 300 UV/Vis spectrophotometer with a 7-cuvette carousel and Starna quartz cuvettes with a septum cap to determine the amount of reduction of ferrocenium. The sample is at laboratory temperature and is maintained under anaerobic conditions. Typically, the absorbance is measured over a period of about 10 to 20 minutes which is sufficient time for the absorbance to stop changing. A linear slope of the rate of change in absorbance during the period that the absorbance is changing is determined using Microsoft Excel® 2010 linear regression to generate a straight line from the data points. The more gradual the slope, the better inhibition because the enzyme is slower at reducing the ferrocenium in the assay sample. A dose-response curve is then determined for each compound by plotting the linear slope against the respective compound concentration. A linear slope is then determined for each compound using Microsoft Excel® 2010 linear regression to generate a straight line from the data points. The steeper the dose-response slope, the better the inhibition because the increased concentration of the compound causes more of a difference in enzyme activity. The dose-response slope generally has a broad standard of deviation due to experimental imprecision and slope determinations.

C. autoethanogenum [2] = assay: Balch tube batch growth of homoacetogen C. autoethanogenum on fructose, optical density; type: cell-based; details: added 21 h after inoculation
Description: These compounds were first tested to determine their effect on a known homoacetogen. Each compound was tested in a series of batch experiments to determine the growth response of a homoacetogen to the presence of the compound at varying concentrations. The batch experiments were all conducted by anoxically filling a Balch tube with 5 ml of a fermentation medium having the composition given in Tables 2 and 3. To expedite results, these batch experiments used fructose as the growth nutrient source for bacteria. Thus, the media included a 5 g/L of fructose.
Each tube was inoculated with 0.5 ml of the same strain of C. autoethanogenum bacteria seed culture inoculum. The tubes were maintained at a temperature of 37° C. Twenty one hours after the inoculation of the tube with the bacteria, the different crotonate derivatives from Table 1 were added to different tubes in the amounts indicated in Table 4 This was at a time of early to mid-log phase growth for the bacteria. Each fermentation of the bacteria in the media at the different concentration of crotonate derivatives were allowed to progress and were monitored to determine the bacteria growth at selected intervals of time varying from approximately 20 hours to 190 hours. Growth at the intervals was measured by reading the optical density (OD) of the fermentation liquid. Optical density was measured using a Spectronic Spec 20 (Thermo Spectronic) at a wavelength of 600 nm. The OD of the Balch tube culture was measured directly in the tube using absorbance mode on the Spec 20 machine. The machine was set to zero absorbance by first measuring and adjusting the setting to zero absorbance using media only as a blank. This process was repeated at each indicated time point throughout the experiment. The ability of a tube fermentation at a particular concentration of crotonate derivative to reach a predetermined optical density was recorded in Table 4. Table 4 indicates the presence of bacterial growth to an OD of approximately 2 or above with a “+”, and to an optical density in a range of 0.5 to 1.5 as a “+/−”, and indicates the failure of bacterial growth to reach an optical density of approximately 0.5 as a “−”.

[3] = test system: Clostridium tyrobutyricum; assay: Balch tube batch growth of strict butyrogen Clostridium tyrobutyricum on fructose, optical density; type: cell-based; details: added 21 h after inoculation
Description: Similar experiments were conducted to make a preliminary determination as to which of the crotonate and crotonate-like compounds would act as butyrogen retardants. For this purpose the selected compounds were tested again in a series of batch experiments to determine the growth response of butyrogens to the presence of the compound at varying concentrations. The batch experiments were all conducted by anoxically filling a 20 ml Balch tube with 5 ml of a fermentation medium having the composition given in Tables 2 and 3. The media included 0.5 v/v final concentration of a fructose substrate. For each of the crotonate concentrations tested, duplicate test tubes were prepared.
Each tube was inoculated with 0.5 ml seed culture inoculum of the strict butyrogen Clostridium tyrobutyricum. The tubes were maintained at a temperature of 37° C. Twenty one hours after the inoculation of the tube with the bacteria, the different compounds from Table 1 were added to different tubes in the amounts indicated in Table 6. This was at a time of early to mid-log phase growth for the bacteria. Each fermentation of the bacteria in the media at the different concentration of crotonate derivatives were allowed to progress and were monitored to determine the bacteria growth at selected intervals of time varying from approximately 20 hours to 54 hours. Growth at the intervals was measured by reading the optical density (OD) of the fermentation liquid. Optical density was measured as described in Example 1. The ability of a tube fermentation at a particular concentration of crotonate derivative to reach a predetermined optical density was recorded in Table 6. Table 6 indicates the presence of bacterial growth to an OD of approximately 1.8 or above with a “+”, and to an optical density in a range of 0.7 to 1.5 as a “+/−”, and indicates the failure of bacterial growth to reach an optical density of approximately 0.7 as a “−”.

[4] = 0 Hours, added 24 h after inoculation
[5] = 2.5 Hours, added 24 h after inoculation
[6] = 6.5 Hours, added 24 h after inoculation
[7] = 24.5 Hours, added 24 h after inoculation

With “3 trifluoromethyl-4-methoxybenzoate [Compound C-18]” the “O.D. Response of Various Inhibitors on C. autoethanogenum” value (“O.D. Response of Various Inhibitors” below) (C. autoethanogenum [1]; [4]) was 0.49, the “O.D. Response of Various Inhibitors” value (C. autoethanogenum [1]; [5]) was 0.44 and the “O.D. Response of Various Inhibitors” value (C. autoethanogenum [1]; [6]) was 0.44. For the same compound, the “O.D. Response of Various Inhibitors” value (C. autoethanogenum [1]; [7]) was 1.16, the “O.D. Response of Various Inhibitors” value (C. autoethanogenum [1]; 30.5 Hours) was 1.30 and the “O.D. Response of Various Inhibitors” value (C. autoethanogenum [1]; 47.5 Hours) was 1.74. For the same compound, the “O.D. Response of Various Inhibitors” value (C. autoethanogenum [1]; 56 Hours) was 1.88, the “O.D. Response to Various Inhibitors” value (C. autoethanogenum [1]; [4]) was 0.49 and the “O.D. Response to Various Inhibitors” value (C. autoethanogenum [1]; [5]) was 0.47. For the same compound, the “O.D. Response to Various Inhibitors” value (C. autoethanogenum [1]; 2.5 Hours, added 24 h after inoculation, listed as C-19) was 0.41, the “O.D. Response to Various Inhibitors” value (C. autoethanogenum [1]; [6]) was 0.44 and the “O.D. Response to Various Inhibitors” value (C. autoethanogenum [1]; [7]) was 1.15. The “O.D. Response to Various Inhibitors” value (C. autoethanogenum [1]; 24.5 Hours, added 24 h after inoculation, listed as C-19) was 1.18, the “O.D. Response to Various Inhibitors” value (C. autoethanogenum [1]; 30.5 Hours, added 24 h after inoculation) was 1.32 and the “O.D. Response to Various Inhibitors” value (C. autoethanogenum [1]; 30.5 Hours, added 24 h after inoculation, listed as C-19) was 1.28. The “O.D. Response to Various Inhibitors” value (C. autoethanogenum [1]; 47.5 Hours, added 24 h after inoculation) was 1.73 and the “O.D. Response to Various Inhibitors” value (C. autoethanogenum [1]; 47.5 Hours, added 24 h after inoculation, listed as C-19) was 1.75.
In the case of `O=C(O)c1cccc(C(F)(F)F)c1` [3-(Trifluoromethyl)benzoate], the “Dose-Response Slope” value (acyl-CoA dehydrogenases) is reported as 6.
In the case of `NC(=O)c1ccc(F)c(C(F)(F)F)c1` [3-Trifluoromethyl-4-fluorobenzamide], the “Dose-Response Slope” value (acyl-CoA dehydrogenases) is reported as 5.
With `COc1ccc(C(N)=O)cc1C(F)(F)F` [3-Trifluoromethyl-4-methoxybenzamide] the “Dose-Response Slope” value (acyl-CoA dehydrogenases) was 12.
For `CCOC(=O)c1ccccc1C(F)(F)F` [Ethyl 2-(trifluoromethyl)benzoate], the “Dose-Response Slope” value (acyl-CoA dehydrogenases) was 8.
`O=C(O)/C=C/C(F)(F)F` [G, 4,4,4-trifluorocrotonic acid] was tested, and the “Optical density valuation of C. autoethanogenum” value (C. autoethanogenum [2]; 10 ppm(m)) was “+ (bacterial growth to an OD of approximately 2 or above)”, the “Optical density valuation of C. autoethanogenum” value (C. autoethanogenum [2]; 100 ppm(m)) was “+ (bacterial growth to an OD of approximately 2 or above)” and the “Optical density valuation of C. autoethanogenum” value (C. autoethanogenum [2]; 500 ppm(m)) was “+ (bacterial growth to an OD of approximately 2 or above)”. The “Optical density valuation of C. autoethanogenum” value (C. autoethanogenum [2]; 1000 ppm(m)) was “+/− (to an optical density in a range of 0.5 to 1.5)”, the “Optical density valuation of C. autoethanogenum” value (C. autoethanogenum [2]; 5000 ppm(m)) was “− (failure of bacterial growth to reach an optical density of approximately 0.5)” and the “Optical density valuation of C. autoethanogenum” value (C. autoethanogenum [2]; 10000 ppm(m)) was “− (failure of bacterial growth to reach an optical density of approximately 0.5)”. The “Optical density valuation of C. tyrobutyricum” value ([3]; 100 ppm(m)) was “+ (bacterial growth to an OD of approximately 1.8 or above)”, the “Optical density valuation of C. tyrobutyricum” value ([3]; 500 ppm(m)) was “+ (bacterial growth to an OD of approximately 1.8 or above)” and the “Optical density valuation of C. tyrobutyricum” value ([3]; 1000 ppm(m)) was “+ (bacterial growth to an OD of approximately 1.8 or above)”.
For `CCOC(=O)/C=C(/C)N` [H, ethyl 3-aminocrotonate], the “Optical density valuation of C. autoethanogenum” value (C. autoethanogenum [2]; 10 ppm(m)) was “+ (bacterial growth to an OD of approximately 2 or above)”, the “Optical density valuation of C. autoethanogenum” value (C. autoethanogenum [2]; 100 ppm(m)) was “+ (bacterial growth to an OD of approximately 2 or above)” and the “Optical density valuation of C. autoethanogenum” value (C. autoethanogenum [2]; 500 ppm(m)) was “+ (bacterial growth to an OD of approximately 2 or above)”. The “Optical density valuation of C. autoethanogenum” value (C. autoethanogenum [2]; 1000 ppm(m)) was “+ (bacterial growth to an OD of approximately 2 or above)”, the “Optical density valuation of C. autoethanogenum” value (C. autoethanogenum [2]; 5000 ppm(m)) was “+ (bacterial growth to an OD of approximately 2 or above)” and the “Optical density valuation of C. autoethanogenum” value (C. autoethanogenum [2]; 10000 ppm(m)) was “+ (bacterial growth to an OD of approximately 2 or above)”.
